Reference: patent publication US20210138025A1, “CATIONIC PEPTIDES WITH IMMUNOMODULATORY AND/OR ANTI-BIOFILM ACTIVITIES” (priority 2018, published 2021)
Values after ≈ are worked out from the molar mass of the structure shown. Read-outs that look alike come from different tables or passages of the source. Non-standard residues stand in square brackets, D forms with d. No end group written: not given here. hArg = N=C(N)NCCCC[C@H](N)C(=O)O; Orn = NCCC[C@H](N)C(=O)O

Key:
[1] = system: planktonic methicillin resistant S. aureus; assay: microbe, parasite or virus in culture; type: cell-based, Staphylococcus aureus; settings: for MIC: Staphylococcus aureus
[2] = system: PBMCs; assay: Cytotoxicity towards PBMCs, lactate dehydrogenase (LDH) release assay (Tables 6, 7); settings: SPOT synthesized peptide ~25 μM, PBMCs from 3 human donors; Table 6
[3] = system: S. aureus (MRSA SAP0017); type: cell-based, Staphylococcus aureus; settings: for % Biofilm Inhibition: SPOT synthesized control peptides, determined as in Table 5, Table 7; for % Residual MRSA biofilm growth compared to untreated control: SPOT synthesized peptide, ~12.5 μM, clinical MRSA strain, crystal violet assay
Method: Methods of assessment of anti-biofilm activity: MRSA S. aureus strain SAP0017 biofilm formation was initially analyzed using a static abiotic solid surface assay as described elsewhere (de la Fuente-Nunez et al., 2012) and shown graphically in FIG. 2. Dilutions (1/100) of overnight cultures were incubated in BM2 biofilm-adjusted medium [62 mM potassium phosphate buffer (pH 7), 7 mM (NH4)2SO4, 2 mM MgSO4, 10 μM FeSO4, 0.4% (wt/vol) glucose, 0.5% (wt/vol) Casamino Acids], or a nutrient rich medium such as Tryptic soy broth supplemented with 1% glucose, in polypropylene microtiter plates (Falcon, United States) in the absence (control) or presence of peptide. Peptide was added at time zero (prior to adding the diluted, overnight cultures) in varying concentrations, and the amount biofilm formation was recorded after 22-46 h incubation for most bacteria. To quantify biofilm growth, planktonic cells were removed and biofilm cells adhering to the side of the wells were stained with crystal violet, and absorbance at 595 nm was measured using a microtiter plate reader (Bio-Tek Instruments Inc., United States).

[4] = system: MCP-1; assay: MCP-1 chemokine induction in human PBMCs, ELISA (Tables 6, 7; FIGS. 6-9, 13); type: cell-based; settings: SPOT synthesized control peptides, determined as in Table 6; Table 7
Method: Venous blood (20 ml) from healthy volunteers was collected in Vacutainer® collection tubes containing sodium heparin as an anticoagulant (Becton Dickinson, Mississauga, ON) in accordance with UBC ethical approval and guidelines. Blood was diluted 1:1 with complete RPMI 1640 medium and separated by centrifugation over a Ficoll-Paque® Plus (Amersham Biosciences, Piscataway, N.J., USA) density gradient. White blood cells were isolated from the buffy coat, washed twice in PBS and then resuspended in RPMI 1640 complete medium (containing 10% fetal bovine serum), and the number of peripheral blood mononuclear cells (PBMC) was determined by Trypan blue exclusion. PBMCs (5×10^5) were seeded into 12-well tissue culture dishes (Falcon; Becton Dickinson) at 0.75-1×10^6 cells/ml at 37° C. in 5% CO2. The above conditions were chosen to mimic conditions for circulating blood monocytes entering tissues at the site of infection via extravasation.
Following incubation of the cells under various treatment regimens, the tissue culture supernatants were centrifuged at 1000×g for 5 min, then at 10,000×g for 2 min to obtain cell-free samples. Supernatants were aliquoted and then stored at −20° C. prior to assay for various chemokines by capture ELISA (eBioscience and BioSource International Inc., CA, USA respectively)

[5] = system: IL-1β; assay: Suppression of LPS-induced IL-1β production in human PBMCs, ELISA (Tables 6, 7; FIGS. 6-9, 13); settings: SPOT synthesized control peptides, determined as in Table 6; Table 7

Compound	% Toxicity (LDH Release) [2] [%]	% Biofilm Inhibition [3] [%]	MCPI production in PBMC [4] [pg/mL]	Fold Change in IL1-β relative to untreated LPS-stimulated cells [5]	other results
CN[C@H](CC(C)C)C(=O)N[C@H]1C(=O)N[C@@H](CC(N)=O)C(=O)N[C@H]2C(=O)N[C@H]3C(=O)N[C@H](C(=O)N[C@H](C(=O)O)c4cc(O)cc(O)c4-c4cc3ccc4O)[C@H](O)c3ccc(c(Cl)c3)Oc3cc2cc(c3O[C@@H]2O[C@H](CO)[C@@H](O)[C@H](O)[C@H]2O[C@H]2C[C@](C)(N)[C@H](O)[C@H](C)O2)Oc2ccc(cc2Cl)[C@H]1O [Vancomycin]	–	–	–	–	MIC ([1]; read-out: MIC (μM) MHB): 0.34 µM (≈ 0.493 µg/mL); MIC ([1]; read-out: MIC (μM) TSB with 1% Glucose): 0.68 µM (≈ 0.986 µg/mL)
ALAIKVWIKILQ-NH2 [Imax-7, ALAIKVWIKILQ]	−1.1	–	–	–	–
C10 (QLRVAWKRAWWA) [Peptide C10]	–	87	1313	1.34	–
C11 (KAVKKGRRAIVV) [Peptide C11]	–	106	197	1.12	–
C12 (VIRAKAVWGWVK) [Peptide C12]	–	104	498	1.01	–
C13 (VARAVQKRWRKK) [Peptide C13]	–	105	221	1.55	–
C14 (VKAKRWKWAQLA) [Peptide C14]	–	104	209	1.2	–
C15 (KRVQAKAWRLQR) [Peptide C15]	–	100	297	0.94	–
C16 (KKIRQWGKAAAW) [Peptide C16]	–	100	571	0.99	–
C17 (QQLRWKRVAKAI) [Peptide C17]	–	100	1677	1.05	–
C18 (IQIQLVKRWAVI) [Peptide C18]	–	100	1768	0.92	–
C19 (RLIQWGWKIWAV) [Peptide C19]	–	99	738	0.94	–
C20 (KLLGILKQAIVV) [Peptide C20]	–	100	106	0.78	–
C21 (VLLRVGARIVVG) [Peptide C21]	–	99	345	0.83	–
C22 (LLIAGKWWKLAI) [Peptide C22]	–	103	153	0.83	–
C23 (LKKIIVQAVGLI) [Peptide C23]	–	97	653	0.95	–
GLIIKIIKKRLW-NH2 [IBFmax-15, GLIIKIIKKRLW]	25.1	–	–	–	–
GRVLKIVWRKGR-NH2 [Mmax-3, GRVLKIVWRKGR]	4.2	–	–	–	–
IKWVLRKIVQII-NH2 [IBFmax-17, IKWVLRKIVQII]	3.6	–	–	–	–
IQLKLIWVKRKW-NH2 [MILBFmax5, IQLKLIWVKRKW]	−1.3	–	–	–	–
IRILVLRKAIIV-NH2 [MILBFmax-9, IRILVLRKAIIV]	23.9	–	–	–	–
IVKKVKLIWGVK-NH2 [MILBFmax-13, IVKKVKLIWGVK]	−3.2	–	–	–	–

Compound	% Toxicity (LDH Release) [2] [%]	% Biofilm Inhibition [3] [%]	MCPI production in PBMC [4] [pg/mL]	Fold Change in IL1-β relative to untreated LPS-stimulated cells [5]	other results
IVKWIAQWKLVG-NH2 [Imax- 10]	−1	–	–	–	–
KIWGLLKLGIAL-NH2 [Imax-6, KIWGLLKLGIAL]	1.1	–	–	–	–
KKQKKIWRRILV-NH2 [Mmax- 16]	1.8	–	–	–	–
KRLQWVKVKKIR-NH2 [BFmax-16, KRLQWVKVKKIR]	0.6	–	–	–	–
KVQIIKQLIAKK-NH2 [BFmax-7, KVQIIKQLIAKK]	−3.9	–	–	–	–
KVVWWKVIIKVL-NH2 [BFmax-2, KVVWWKVIIKVL]	−3.5	–	–	–	–
LKLKAILKIIRV-NH2 [MILBFmax-1, LKLKAILKIIRV]	1.5	–	–	–	–
QIIKVVWRAVII-NH2 [MILBFmax-8, QIIKVVWRAVII]	−2.3	–	–	–	–
QQVKWWLIRWLA-NH2 [IBFmax-11, QQVKWWLIRWLA]	−0.1	–	–	–	–
RARQIRWLRKRV-NH2 [Imin-4, RARQIRWLRKRV]	−4.9	–	–	–	–
RQVRVKRWRARW-NH2 [Mmax- 18]	−4.9	–	–	–	–
RVLIKWKKVIVV-NH2 [IBFmax-8, RVLIKWKKVIVV]	−1.8	–	–	–	–
VARWKIIIAKLW-NH2 [BFmax-5, VARWKIIIAKLW]	2	–	–	–	–
VIKVLIKRWLKL-NH2 [BFmax-9, VIKVLIKRWLKL]	7.4	–	–	–	–
VKGAIKRGIWVK-NH2 [Imax- 5]	3	–	–	–	–
VQWIQIVVWRKR-NH2 [BFmax-6, VQWIQIVVWRKR]	−4.4	–	–	–	–
VRLIVAVRIWRR-NH2 [Peptide 1018, VRLIVAVRIWRR, reference compound]	21.8	–	–	–	percentage of biofilm inhibited ([3]; SPOT-synthesized peptide, ~2.5 μM, MRSA SAP0017): 31%; MIC (μM) MHB ([1]; planktonic methicillin resistant S. aureus, broth microdilution in Mueller Hinton Broth (MHB), mean of three biological replicates): 4 µM; MIC (μM) TSB with 1% Glucose ([1]; planktonic methicillin resistant S. aureus, broth microdilution in Tryptic Soy Broth (TSB) supplemented with 1% glucose, mean of three biological replicates): >64 µM
VRLIVHarVRIWRR (VRLIV[hArg]VRIWRR-NH2; N-terminus assumed; SMILES CC[C@H](C)[C@H](NC(=O)[C@H](CCCNC(=N)N)NC(=O)[C@@H](NC(=O)[C@H](CCCCNC(=N)N)NC(=O)[C@@H](NC(=O)[C@@H](NC(=O)[C@H](CC(C)C)NC(=O)[C@H](CCCNC(=N)N)NC(=O)[C@@H](N)C(C)C)[C@@H](C)CC)C(C)C)C(C)C)C(=O)N[C@@H](Cc1c[nH]c2ccccc12)C(=O)N[C@@H](CCCNC(=N)N)C(=O)N[C@@H](CCCNC(=N)N)C(N)=O) [Peptide 1018-r30]	–	–	–	–	% Residual MRSA biofilm growth compared to untreated control [3]: 57%
VRLIVOrnVRIWRR (VRLIV[Orn]VRIWRR-NH2; N-terminus assumed; SMILES CC[C@H](C)[C@H](NC(=O)[C@H](CCCNC(=N)N)NC(=O)[C@@H](NC(=O)[C@H](CCCN)NC(=O)[C@@H](NC(=O)[C@@H](NC(=O)[C@H](CC(C)C)NC(=O)[C@H](CCCNC(=N)N)NC(=O)[C@@H](N)C(C)C)[C@@H](C)CC)C(C)C)C(C)C)C(=O)N[C@@H](Cc1c[nH]c2ccccc12)C(=O)N[C@@H](CCCNC(=N)N)C(=O)N[C@@H](CCCNC(=N)N)C(N)=O) [Peptide 1018-k30]	–	–	–	–	% Residual MRSA biofilm growth compared to untreated control [3]: 27%
VVGLRVRWVRLW-NH2 [Imin-3, VVGLRVRWVRLW]	−4.3	–	–	–	–
WAVRALKVKWAL-NH2 [Imax-20, WAVRALKVKWAL]	−2.7	–	–	–	–
WWIKIVVIRVRR-NH2 [IBFmax-13, WWIKIVVIRVRR]	−2	–	–	–	–
